Seven molecules from patent US11225505B2, “Antimicrobial polymyxin derivative compounds” (MONASH UNIVERSITY, priority 2015, dated 2022) can be followed below.

What all share (type): cell-based
Test [1] deals with Enterobacter cloacae FADDI-EC006. The settings on record: FADDI-EC006. The gist of the method:
(§1)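 In cation-adjusted Mueller-Hinton broth, each lipopeptide (TFA salt) was titrated against the bacteria by microdilution and the minimum inhibitory concentration recorded per CLSI M100-S24; polymyxin B sulphate ran in parallel.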

In test [2] the test system is Enterobacter cloacae FADDI-EC001. As to conditions: FADDI-EC001. In outline: (§2)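 Values are MICs of the lipopeptide trifluoroacetic acid salts. Dilution series were set up in CAMHB as CLSI M100-S24 specifies.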
In test [3] the test system is Acinetobacter baumannii FADDI-AB034. The settings on record: FADDI-AB034. In outline: as §1
Test [4] deals with Klebsiella pneumoniae FADDI-KP032. As to conditions: FADDI-KP032. In outline:
as §1

The subject of test [5] is Acinetobacter baumannii ATCC 17978. The settings on record: ATCC 17978. The gist of the method:
as §1

The subject of test [6] is Pseudomonas aeruginosa FADDI-PA022. As to conditions: FADDI-PA022. In outline: as §1
The subject of test [7] is Klebsiella pneumoniae FADDI-KP022. The settings on record: FADDI-KP022. In outline:
as §1

The test system of test [8] is Klebsiella pneumoniae Kp BM1. As to conditions: Kp BM1. The gist of the method:
as §2

The subject of test [9] is Enterobacter cloacae FADDI-EC003. The settings on record: FADDI-EC003. In outline: as §1
The test system of test [10] is Pseudomonas aeruginosa FADDI-PA038. As to conditions: FADDI-PA038. In outline: as §1
For test [11], the system named is Pseudomonas aeruginosa ATCC 27853. The settings on record: ATCC 27853. In outline: as §1
The subject of test [12] is Pseudomonas aeruginosa FADDI-PA01. As to conditions: FADDI-. In outline: as §1
The test system of test [13] is Acinetobacter baumannii FADDI-AB030. Nature of the test: microbe, parasite or virus in culture. The settings on record: FADDI-AB030. The gist of the method: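 Lipopeptide TFA salts tested against the multidrug-resistant clinical isolate by CLSI (M100-S24) broth microdilution in cation-adjusted Mueller-Hinton broth, with polymyxin B sulphate as control; MIC read.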

Structures are written as SMILES. ≈ marks a conversion by molar mass, not a printed value. Where a SMILES comes first, the peptide text is derived from it. Bridges are numbered along the chain shown (N, C = ends). [ ]: non-standard residue; d: D form. The star is where a group is joined. X9 = O=C(c1ccnc(C(F)(F)F)c1)*; X46 = O=C(c1cc(Br)nc(Br)c1)*; X17 = O=C(c1ncc(Br)cc1Cl)*; X36 = O=C(c1ncc(Br)cc1Br)*; X29 = O=C(c1cc(Cl)ccn1)*; Dab = NCC[C@H](N)C(=O)O; X40 = Cc1cncc(C(=O)*)c1; Abu = CC[C@H](N)C(=O)O; Dap = NC[C@H](N)C(=O)O; X8 = O=C(c1ccnc(F)c1)*

Consider `CC[C@@H]1NC(=O)[C@@H](CC(C)C)NC(=O)[C@H](CCN)NC(=O)[C@@H](NC(=O)[C@H](CN)NC(=O)[C@@H](NC(=O)[C@H](CCN)NC(=O)c2cc(Cl)ccn2)[C@@H](C)O)CCNC(=O)[C@H]([C@@H](C)O)NC(=O)[C@H](CCN)NC(=O)[C@H](CCN)NC1=O` [Compound 26] (X29-[Dab]T[Dap][Dab][Dab][dL][Abu][Dab][Dab]T; lactam 4-C), for which the Minimum inhibitory concentration in test [1] was 2 µg/mL (≈ 1.78 µM); in [2], 0.25 µg/mL (≈ 0.222 µM); in test [3], 0.5 µg/mL (≈ 0.444 µM); in [4] it was 0.25 µg/mL (≈ 0.222 µM); in [5] it was 0.5 µg/mL (≈ 0.444 µM); in [6], 0.25 µg/mL (≈ 0.222 µM). The Minimum inhibitory concentration in test [7] was below 0.125 µg/mL; in test [8] it was 0.25 µg/mL (≈ 0.222 µM); in [9] it was below 0.125 µg/mL; in test [10] it was 0.5 µg/mL (≈ 0.444 µM); in test [11] it was 0.25 µg/mL (≈ 0.222 µM); in [12], 0.25 µg/mL (≈ 0.222 µM). For the same molecule, the Minimum inhibitory concentration in test [13] turned out to be 0.5 µg/mL (≈ 0.444 µM).
`CC[C@@H]1NC(=O)[C@@H](CC(C)C)NC(=O)[C@H](CCN)NC(=O)[C@@H](NC(=O)[C@H](CN)NC(=O)[C@@H](NC(=O)[C@H](CCN)NC(=O)c2cc(Br)nc(Br)c2)[C@@H](C)O)CCNC(=O)[C@H]([C@@H](C)O)NC(=O)[C@H](CCN)NC(=O)[C@H](CCN)NC1=O` [Compound 28] (X46-[Dab]T[Dap][Dab][Dab][dL][Abu][Dab][Dab]T; lactam 4-C): the Minimum inhibitory concentration in test [1] was below 0.125 µg/mL; in [2], 0.25 µg/mL (≈ 0.2 µM); in test [3], 0.25 µg/mL (≈ 0.2 µM); in test [4] it was 0.25 µg/mL (≈ 0.2 µM); in [5], 0.25 µg/mL (≈ 0.2 µM); in test [6], 0.25 µg/mL (≈ 0.2 µM). The Minimum inhibitory concentration in test [7] is below 0.125 µg/mL; in [8] it was 0.25 µg/mL (≈ 0.2 µM); in test [9] it was 0.25 µg/mL (≈ 0.2 µM); in test [10], 1 µg/mL (≈ 0.8 µM); in test [11], 0.25 µg/mL (≈ 0.2 µM); in [12], 1 µg/mL (≈ 0.8 µM). In addition, in test [13], the Minimum inhibitory concentration was 0.25 µg/mL (≈ 0.2 µM).
On to `CC(C)C[C@H]1NC(=O)[C@H](CCN)NC(=O)[C@@H](NC(=O)[C@H](CN)NC(=O)[C@@H](NC(=O)[C@H](CCN)NC(=O)c2ncc(Br)cc2Br)[C@@H](C)O)CCNC(=O)[C@H]([C@@H](C)O)NC(=O)[C@H](CCN)NC(=O)[C@H](CCN)NC(=O)[C@H]([C@@H](C)O)NC1=O` [Compound 29] (X36-[Dab]T[Dap][Dab][Dab][dL]T[Dab][Dab]T; lactam 4-C), for which the Minimum inhibitory concentration in test [1] was below 0.125 µg/mL; in test [2], 0.25 µg/mL (≈ 0.197 µM); in [3], 2 µg/mL (≈ 1.58 µM); in [4] it was 1 µg/mL (≈ 0.79 µM); in test [5] it was 2 µg/mL (≈ 1.58 µM); in test [6] it was 0.25 µg/mL (≈ 0.197 µM). Also, the Minimum inhibitory concentration in [7] was found to be 0.25 µg/mL (≈ 0.197 µM); in [8], 0.5 µg/mL (≈ 0.395 µM); in [9], 0.25 µg/mL (≈ 0.197 µM); in [10], 1 µg/mL (≈ 0.79 µM); in test [11], 1 µg/mL (≈ 0.79 µM); in test [12], 0.5 µg/mL (≈ 0.395 µM). Besides, in test [13], the Minimum inhibitory concentration stood at 1 µg/mL (≈ 0.79 µM).
Consider `CC[C@@H]1NC(=O)[C@@H](CC(C)C)NC(=O)[C@H](CCN)NC(=O)[C@@H](NC(=O)[C@H](CN)NC(=O)[C@@H](NC(=O)[C@H](CCN)NC(=O)c2cncc(C)c2)[C@@H](C)O)CCNC(=O)[C@H]([C@@H](C)O)NC(=O)[C@H](CCN)NC(=O)[C@H](CCN)NC1=O` [Compound 30] (X40-[Dab]T[Dap][Dab][Dab][dL][Abu][Dab][Dab]T; lactam 4-C), for which the Minimum inhibitory concentration in test [1] stood at 2 µg/mL (≈ 1.81 µM); in test [2], 0.5 µg/mL (≈ 0.452 µM); in test [3], 4 µg/mL (≈ 3.62 µM); in [4], 2 µg/mL (≈ 1.81 µM); in test [5] it was 8 µg/mL (≈ 7.23 µM); in [6], 0.5 µg/mL (≈ 0.452 µM). In addition, the Minimum inhibitory concentration in test [7] is 0.25 µg/mL (≈ 0.226 µM); in test [8], 1 µg/mL (≈ 0.904 µM); in test [9], 0.5 µg/mL (≈ 0.452 µM); in test [10], 1 µg/mL (≈ 0.904 µM); in test [11], 0.5 µg/mL (≈ 0.452 µM); in [12], 0.5 µg/mL (≈ 0.452 µM). Further, the Minimum inhibitory concentration in test [13] came out at 4 µg/mL (≈ 3.62 µM).
Consider `CC[C@@H]1NC(=O)[C@@H](CC(C)C)NC(=O)[C@H](CCN)NC(=O)[C@@H](NC(=O)[C@H](CN)NC(=O)[C@@H](NC(=O)[C@H](CCN)NC(=O)c2ccnc(F)c2)[C@@H](C)O)CCNC(=O)[C@H]([C@@H](C)O)NC(=O)[C@H](CCN)NC(=O)[C@H](CCN)NC1=O` [Compound 31] (X8-[Dab]T[Dap][Dab][Dab][dL][Abu][Dab][Dab]T; lactam 4-C), for which the Minimum inhibitory concentration in test [1] was 1 µg/mL (≈ 0.901 µM); in test [2], 0.5 µg/mL (≈ 0.45 µM); in test [3] it was 2 µg/mL (≈ 1.8 µM); in test [4], 1 µg/mL (≈ 0.901 µM); in test [5], 2 µg/mL (≈ 1.8 µM); in [6], 0.25 µg/mL (≈ 0.225 µM). Moreover, the Minimum inhibitory concentration in [7] is below 0.125 µg/mL; in test [8], 1 µg/mL (≈ 0.901 µM); in test [9] it was 0.5 µg/mL (≈ 0.45 µM); in test [10], 0.5 µg/mL (≈ 0.45 µM); in test [11], 0.25 µg/mL (≈ 0.225 µM); in test [12], 0.25 µg/mL (≈ 0.225 µM). The Minimum inhibitory concentration in [13] was 2 µg/mL (≈ 1.8 µM).
Turning to `CC(C)C[C@H]1NC(=O)[C@H](CCN)NC(=O)[C@@H](NC(=O)[C@H](CN)NC(=O)[C@@H](NC(=O)[C@H](CCN)NC(=O)c2ccnc(C(F)(F)F)c2)[C@@H](C)O)CCNC(=O)[C@H]([C@@H](C)O)NC(=O)[C@H](CCN)NC(=O)[C@H](CCN)NC(=O)[C@H]([C@@H](C)O)NC1=O` [Compound 32] (X9-[Dab]T[Dap][Dab][Dab][dL]T[Dab][Dab]T; lactam 4-C; N-terminus assumed), the Minimum inhibitory concentration in [1] turned out to be 1 µg/mL (≈ 0.85 µM); in test [2] it was 1 µg/mL (≈ 0.85 µM); in test [3], 2 µg/mL (≈ 1.7 µM); in test [4], 0.25 µg/mL (≈ 0.213 µM); in test [5], 4 µg/mL (≈ 3.4 µM); in test [6], 0.5 µg/mL (≈ 0.425 µM). In addition, the Minimum inhibitory concentration in test [7] was below 0.125 µg/mL; in [8], 1 µg/mL (≈ 0.85 µM); in test [9], 0.5 µg/mL (≈ 0.425 µM); in test [10], 0.5 µg/mL (≈ 0.425 µM); in test [11], 0.5 µg/mL (≈ 0.425 µM); in test [12], 1 µg/mL (≈ 0.85 µM). In addition, the Minimum inhibitory concentration in test [13] worked out at 1 µg/mL (≈ 0.85 µM).
Take `CC[C@@H]1NC(=O)[C@@H](CC(C)C)NC(=O)[C@H](CCN)NC(=O)[C@@H](NC(=O)[C@H](CN)NC(=O)[C@@H](NC(=O)[C@H](CCN)NC(=O)c2ncc(Br)cc2Cl)[C@@H](C)O)CCNC(=O)[C@H]([C@@H](C)O)NC(=O)[C@H](CCN)NC(=O)[C@H](CCN)NC1=O` [Compound 33] (X17-[Dab]T[Dap][Dab][Dab][dL][Abu][Dab][Dab]T; lactam 4-C): the Minimum inhibitory concentration in test [1] is below 0.125 µg/mL; in test [2], below 0.125 µg/mL; in test [3] it was 0.5 µg/mL (≈ 0.415 µM); in [4] it was below 0.125 µg/mL; in [5], 0.5 µg/mL (≈ 0.415 µM); in test [6] it was 0.25 µg/mL (≈ 0.207 µM). For the same molecule, the Minimum inhibitory concentration in test [7] was below 0.125 µg/mL; in [8], below 0.125 µg/mL; in test [9] it was below 0.125 µg/mL; in [10] it was 0.5 µg/mL (≈ 0.415 µM); in test [11], 0.25 µg/mL (≈ 0.207 µM); in test [12], 0.25 µg/mL (≈ 0.207 µM). This molecule also registered a Minimum inhibitory concentration in test [13] of 0.5 µg/mL (≈ 0.415 µM).
